ChEMBL document CHEMBL4842385, “Indirubin Derivatives as Dual Inhibitors Targeting Cyclin-Dependent Kinase and Histone Deacetylase for Treating Cancer” (J Med Chem, 2021)
Activity calls are given as the source filed them.

Legend:
A549 [1] = assay: Antitumor activity against human A549 cells xenografted in BALB/c nude mouse assessed as reduction in tumor volume at 0.75 to 1.5 mg, IT (intratumoral) administered for 21 consecutive days; type: functional, cell-based; details: dose 0.75-1.5 mg, time 21.0 day
K562 [2] = assay: Cycle arrest in human K562 cells assessed as increase in cell population at S phase measured after 24 hrs by propidium iodide/RNase staining based flow cytometry; type: functional; details: dose 2.5-10 µM
[3] = biological target: T1, Protein deacetylase HDAC6 (Homo sapiens) (UniProt Q9UBN7); assay: Inhibition of HDAC6 in human A549 cells assessed as accumulation of acetylation of H3 at 1 to 10 uM measured after 48 hrs by Western blot analysis; type: cell-based; details: dose 1-10 µM
T1 sequence (whole entry): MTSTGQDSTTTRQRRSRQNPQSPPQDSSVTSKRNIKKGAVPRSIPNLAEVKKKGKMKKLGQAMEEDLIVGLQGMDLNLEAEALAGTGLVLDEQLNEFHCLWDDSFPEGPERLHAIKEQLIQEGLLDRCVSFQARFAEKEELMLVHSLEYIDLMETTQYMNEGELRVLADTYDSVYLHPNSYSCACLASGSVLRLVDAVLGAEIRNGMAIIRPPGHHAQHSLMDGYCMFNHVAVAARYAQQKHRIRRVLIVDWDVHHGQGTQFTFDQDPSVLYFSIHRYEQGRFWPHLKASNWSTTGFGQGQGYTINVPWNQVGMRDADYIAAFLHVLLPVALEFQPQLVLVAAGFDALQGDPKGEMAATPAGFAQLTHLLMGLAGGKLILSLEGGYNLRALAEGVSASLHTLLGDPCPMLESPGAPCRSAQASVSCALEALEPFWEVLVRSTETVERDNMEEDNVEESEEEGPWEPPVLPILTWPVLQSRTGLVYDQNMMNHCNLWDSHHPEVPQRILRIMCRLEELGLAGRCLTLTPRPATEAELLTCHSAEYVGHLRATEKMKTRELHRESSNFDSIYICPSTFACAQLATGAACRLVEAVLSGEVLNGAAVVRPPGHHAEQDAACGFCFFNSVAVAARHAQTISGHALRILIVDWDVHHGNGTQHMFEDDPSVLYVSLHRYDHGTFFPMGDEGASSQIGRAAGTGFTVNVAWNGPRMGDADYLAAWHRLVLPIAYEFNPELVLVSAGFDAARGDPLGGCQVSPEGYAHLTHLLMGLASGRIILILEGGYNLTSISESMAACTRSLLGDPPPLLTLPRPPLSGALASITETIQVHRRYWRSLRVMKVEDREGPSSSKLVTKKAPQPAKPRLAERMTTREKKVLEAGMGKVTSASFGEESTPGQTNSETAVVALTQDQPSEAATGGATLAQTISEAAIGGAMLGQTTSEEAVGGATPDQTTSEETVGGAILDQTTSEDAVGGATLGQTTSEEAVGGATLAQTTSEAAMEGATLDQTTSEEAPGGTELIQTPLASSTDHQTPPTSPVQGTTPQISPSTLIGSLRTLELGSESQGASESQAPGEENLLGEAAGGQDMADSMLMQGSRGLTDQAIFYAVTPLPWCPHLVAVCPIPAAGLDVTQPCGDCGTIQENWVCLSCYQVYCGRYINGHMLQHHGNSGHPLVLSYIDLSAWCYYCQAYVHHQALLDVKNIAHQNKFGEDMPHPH

K562 [4] = assay: Induction of apoptosis in human K562 cells measured after 48 hrs by Annexin-V/FITC-propidium iodide staining based flow cytometry analysis; type: functional, cell-based; details: dose 2.5-10 µM
[5] = biological target: T1, Protein deacetylase HDAC6 (Homo sapiens); assay: Inhibition of HDAC6 in human K562 cells assessed as accumulation of acetylation of […] at 1 to 10 uM measured after 48 hrs by Western blot analysis; type: cell-based; details: dose 1-10 µM
[6] = biological target: Protein deacetylase HDAC6 (Mus musculus) (UniProt Q9Z2V5); assay: In vivo inhibition of HDAC6 in BALB/c nude mouse xenografted with human A549 cells assessed as increase in alpha tubulin acetylation at 25 to 50 mg/kg, iv administered for 21 consecutive days by immunohistochemical analysis; type: functional, organism-based; details: dose 25-50 mg/kg, time 21.0 day
Sequence of Protein deacetylase HDAC6 (Mus musculus) (Q9Z2V5 whole entry): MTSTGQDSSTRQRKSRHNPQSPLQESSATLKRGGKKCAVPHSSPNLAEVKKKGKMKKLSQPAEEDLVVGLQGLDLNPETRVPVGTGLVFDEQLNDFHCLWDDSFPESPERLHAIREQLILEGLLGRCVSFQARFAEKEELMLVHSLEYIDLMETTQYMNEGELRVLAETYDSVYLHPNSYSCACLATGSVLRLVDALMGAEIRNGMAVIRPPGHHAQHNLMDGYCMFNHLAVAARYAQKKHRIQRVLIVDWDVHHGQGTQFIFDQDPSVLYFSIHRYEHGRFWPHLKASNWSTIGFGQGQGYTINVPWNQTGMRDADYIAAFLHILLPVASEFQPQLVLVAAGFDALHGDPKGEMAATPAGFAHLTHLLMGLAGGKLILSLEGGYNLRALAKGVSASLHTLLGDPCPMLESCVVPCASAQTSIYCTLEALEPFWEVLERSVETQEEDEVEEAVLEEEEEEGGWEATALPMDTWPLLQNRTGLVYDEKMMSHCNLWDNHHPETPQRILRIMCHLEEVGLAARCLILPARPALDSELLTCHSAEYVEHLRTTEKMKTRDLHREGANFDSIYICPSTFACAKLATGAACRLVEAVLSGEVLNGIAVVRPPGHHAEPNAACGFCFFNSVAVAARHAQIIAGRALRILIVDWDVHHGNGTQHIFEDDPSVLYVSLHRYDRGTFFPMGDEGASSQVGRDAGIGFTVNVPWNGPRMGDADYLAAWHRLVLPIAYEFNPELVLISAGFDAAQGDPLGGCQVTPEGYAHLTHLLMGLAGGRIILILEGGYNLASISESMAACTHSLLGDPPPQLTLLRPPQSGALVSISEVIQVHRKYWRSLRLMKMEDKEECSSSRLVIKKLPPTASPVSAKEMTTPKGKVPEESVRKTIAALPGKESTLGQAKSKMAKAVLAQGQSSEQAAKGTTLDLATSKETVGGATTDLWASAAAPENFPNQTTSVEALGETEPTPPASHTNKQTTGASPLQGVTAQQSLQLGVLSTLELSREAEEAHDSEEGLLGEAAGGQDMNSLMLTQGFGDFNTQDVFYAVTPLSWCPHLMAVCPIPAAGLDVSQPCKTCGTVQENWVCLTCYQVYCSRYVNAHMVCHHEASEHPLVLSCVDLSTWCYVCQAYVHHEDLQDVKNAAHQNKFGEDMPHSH

MCF7 [7] = assay: Induction of apoptosis in human MCF7 cells measured after 48 hrs by Annexin-V/FITC-propidium iodide staining based flow cytometry analysis; type: functional, cell-based; details: dose 2.5-10 µM
[8] = Toxicity in BALB/c nude mouse xenografted with human A549 cells assessed as adverse effect at 25 to 50 mg/kg, iv administered for 21 consecutive days; type: organism-based; details: in vivo, 504 h, dose 25-50 mg/kg, time 21 day
MCF7 [9] = assay: Cycle arrest in human MCF7 cells assessed as increase in cell population at S phase measured after 24 hrs by propidium iodide/RNase staining based flow cytometry; type: functional; details: dose 2.5-10 µM
A549 [10] = assay: Cycle arrest in human A549 cells assessed as increase in cell population at S phase measured after 24 hrs by propidium iodide/RNase staining based flow cytometry; type: functional; details: dose 2.5-10 µM
[11] = biological target: T1, Protein deacetylase HDAC6 (Homo sapiens); assay: Inhibition of HDAC6 in human A549 cells assessed as accumulation of acetylation of H4 at 1 to 10 uM measured after 48 hrs by Western blot analysis; type: cell-based; details: dose 1-10 µM
A549 [12] = assay: Induction of apoptosis in human A549 cells assessed as downregulation of Mcl-1 protein measured after 48 hrs by Western blot analysis; type: functional, cell-based; details: dose 1-10 µM
A549 [13] = assay: Antitumor activity against human A549 cells xenografted in BALB/c nude mouse assessed as reduction in tumor weight at 0.75 to 1.5 mg, IT (intratumoral) administered for 21 consecutive days; type: functional, cell-based; details: dose 0.75-1.5 mg, time 21.0 day
[14] = biological target: T1, Protein deacetylase HDAC6 (Homo sapiens); assay: Inhibition of HDAC6 in human A549 cells assessed as increase in alpha tubulin acetylation measured after 48 hrs by Western blot analysis; type: cell-based; details: dose 1-10 µM
[15] = biological target: T1, Protein deacetylase HDAC6 (Homo sapiens); assay: Inhibition of HDAC6 in human A549 cells assessed as increase in alpha tubulin acetylation at 10 uM incubated for 24 hrs followed by compound washout by DAPI staining based immunofluorescence assay; type: cell-based
A549 [16] = assay: Antitumor activity against human A549 cells xenografted in BALB/c nude mouse assessed as tumor growth inhibition at 50 mg/kg, iv administered for 21 consecutive days relative to control; type: functional; details: 504 h, time 21 day, read-out: TGI
[17] = biological target: T1, Protein deacetylase HDAC6 (Homo sapiens); assay: Inhibition of HDAC6 in human MCF7 cells assessed as accumulation of acetylation of H4 at 1 to 10 uM measured after 48 hrs by Western blot analysis; type: cell-based; details: dose 1-10 µM
A549 [18] = assay: Induction of apoptosis in human A549 cells assessed as increase in PARP cleavage measured after 48 hrs by Western blot analysis; type: functional, cell-based; details: dose 1-10 µM

O=C(CCCO/N=C1/C(=C2/C(=O)Nc3ccccc32)Nc2ccccc21)NO
Non-Toxic: Activity [8]
inactive: inhibition [3] | inhibition [5] | inhibition [11] | inhibition [17]
active: Activity (A549 [1]) | Activity (K562 [2]) Dose-Dependent Effect | Activity (K562 [4]) Dose-Dependent Effect | inhibition [6] | Activity (MCF7 [7]) Dose-Dependent Effect | Activity (MCF7 [9]) Dose-Dependent Effect | Activity (A549 [10]) Dose-Dependent Effect | Activity (A549 [12]) Dose-Dependent Effect | Activity (A549 [13]) | inhibition [14] Dose-Dependent Effect | inhibition [15] | Activity (A549 [18]) Dose-Dependent Effect
66.6%: inhibition in vivo at 50 mg/kg (A549 [16])
